Test results taken from patent publication US4444691A, “11-Cyano-prostaglandins of the F-series” (American Cyanamid Company, priority 1982, dated 1984).
Like-named read-outs stand apart in the source and are kept apart here. Values belong to the molecule of their own block, whether it stands above or below them.

What was measured:
[1] = system: basal gastric acid secretion; assay: Inhibition of total acid output (basal gastric acid secretion) in the acute gastric fistula rat; format: in vivo, female Sprague-Dawley rats; details: Rattus norvegicus, intraduodenal
Procedure: Inhibition of basal gastric acid secretion can be determined by the following procedure.
Female Sprague-Dawley rats weighing 140-160 grams are fasted in individual cages for 18-24 hours. The rats are then lightly anesthetized with ether and their front teeth extracted to avoid destruction of the plastic cannula. A midline incision is then made and the stomach and duodenum exposed. A flanged polyvinyl tube is inserted into the fundic portion of the stomach and secured with a purse string suture line using 4-O Mersilene. The rat is then dosed by injection of the compound into the duodenum (1.0 ml. per 100 gram body weight). After dosing, the abdominal wall and skin are closed using metal wound clips. The rat is replaced in a cage containing a longitudinal slit to allow the polyvinyl tube to hang freely. An 8 ml. plastic collecting tube is attached to the flanged cannula and hangs freely below the cage. The first 30 minute sample is discarded designating this time as zero. The collecting tube is attached again and samples removed at the end of 60 and 120 minutes. These samples are referred to as "A" and "B" in the table. The hourly samples are then transferred to a 15 ml. centrifuge and centrifuged for 5-10 minutes. Total and sediment volume are then recorded with the supernatent volume being used as volume of secretion. A 1 ml. or less aliquot is then removed and placed in a 50 ml. beaker containing 10 ml. of distilled water. This sample is then titrated using 0.01 N NaPH to pH 7.0 using a Beckman zeromatic pH meter. Volume, titratable acidity (mew/L) and total acid output (ueq/hour) are recorded. Percent inhibition is determined by comparison with the appropriate control. Groups of three rats were used for preliminary testing, and groups of six rats were used for dose-response evaluations. All compounds are administered in a vehicle consisting of 0.5% methocel, 0.4% tween 80, and saline at a constant volume of 1 ml./100 gram rat. Samples are dispersed by sonification. Percent inhibition is calculated on basis of concurrent vehicle control.
In Table III which follows is given the effect on total acid output after 60 minutes and 120 minutes of intraduodenal dose, of representative compounds of this invention.

ligated intestine = system: ligated intestine; set-up: species or system female Sprague-Dawley rats; details: rat, in vivo
Procedure: It is therefore unexpected and novel that in general, the compounds of this invention are not diarrheagenic at dose levels at which they are effective gastric acid secretion inhibitors. One measure of diarrheagenic potential is the ileal ligated rat assay, a description of which follows directly.
Female Sprague-Dawley rats (Charles River Laboratories) weighing less than 100 grams are fasted in individual cages for at least 18 hours. They are then anesthetized with ether and a midline incision made. The duodenum is exposed and the test drug or control injected intraduodenally. The ilcocecal junction is then exposed and the terminal ileum is ligated using 3-0 silk thread just proximal to the junction. The incision is then closed using wound clips. Rats are placed back in individual cages without food or water for four hours. After this time the rats were sacrificed, the stomach and small intestine carefully removed, and cleaned of adherent mesentery. The removed portion of gut is then weighed to the nearest 0.1 gram. Compounds inducing diarrhea such as prostaglandins, cholera toxin, etc. produce an increase in weight of the ligated intestine. This increase from control is noted in Table IV, as change in weight in grams after standardizing weights of gut to grams/100 gram rat. An increase in intestinal weight of about 1.0 g. is considered indicative of diarrheagenic potential.
When measured by this assay at effective gastric acid secretion inhibiting doses, as determined by the acute rat fistula assay representative novel compounds of Table IV are non-diarrheagenic.

[2] = system: ulcerogenic effects induced by indomethacin (stomach ulcers); format: in vivo, rat; details: indomethacin 20 mg/kg s.c.
Procedure: It is further to be noted that although prostaglandins in general are not effective when administered by oral route, the compounds of this invention are effective orally. The assay to determine the protective effect of these compounds is carried out in the following manner.
Rats were starved for 48 hours (water was given ad libitum). Indomethacin (20 mg./kg. of body weight) was administered by the subcutaneous route and one-half the dose of the test compound was administered by gavage at the same time. After three hours, the second half of the test compound was administered, also by gavage. Five hours after the administration of indomethacin the animals were decapitated and the stomachs removed. The stomachs were washed with distilled water, blotted on gauze, cut along the larger curvature, and the contents rinsed with distilled water. The stomachs were spread out, pinned on a cork and visualized under magnifying glass for ulcers. The criteria for scoring of ulcers was as previously reported. [Abdel-Galil et al. Brit. J. Pharmac. Chemotherapy 33:1-14 (1968)]. […]
1 Petechial hemorrhage of pin point ulcers
3 Many ulcers, a few large
4 Many ulcers, mainly large
Control animals treated with indomethacin but not test compound consistently give scores of about 2.5-3.5. Control animals treated with neither indomethacin not test compound give scores of about 0.5-0.8. Compounds diminishing the control ulcer score by 0.5 unit or more are considered to be active.

gastrointestinal effects = details: Physician's Desk Reference 1972, p. 964; cited from earlier work
gastric acid secretion = assay: Gastric acid secretion inhibition, modified Shay rat procedure; format: in vivo, rats (male, CFE strain); details: Rattus norvegicus, intraduodenal, read-out: Percent inhibition of gastric acid secretion
Excerpt: The novel compounds of the present invention are effective inhibitors of gastric acid secretion and of ulcer development in experimental animals, and thus are potentially valuable as agents for the control of gastric secretion and of gastric erosion and as anti-ulcer agents. Gastric acid secretion inhibitory action is usually measured by the "Shay rat" procedure ^(1,2) with some modifications as follows.
(1) Shay et al., Gastroenterology, 5, 43 (1945).
The rats (male, CFE strain) were starved for 48 hours (water was given ad libitum) to permit evacuation of stomach contents. On the morning of the experiment, under ether anesthesia, the abdominal region was shaved and a midline incision (1-11/2" ) was made with a scapel. With the help of a closed curved hemostat the duodenum was picked up. Upon getting the duodenum into view, fingers were used to pull the stomach through the opening, the stomach was then gently manipulated with fingers to rid stomach of air and residual matter which were pushed through the pylorus. Two-5 inch sutures were drawn under the pyloric-duodenal puncture. A ligature at the juncture, was formed with one of the threads. The second ligature was also formed but not tightened.
The test compound or the vehicle, usually 1 ml./100 g. body weight, were injected into the duodenum as close as possible to the first ligature. After injection the second ligature was tightened below the injection site to minimize leakage. The stomach was placed back through the opening into the abdominal cavity, the area of incision was washed with saline and the incision was closed with autoclips. (Occasionally, instead of an intraduodenal injection, animals were dosed by the oral or subcutaneous route. In the latter case, dosing was done thirty to sixty minutes before the operation.)
The abdominal cavity was exposed by cutting with scissors and the esophagus close to the stomach was clamped off with a hemostat, the stomach was removed by cutting above the hemostat (the esophagus was cut) and between the two sutures. Extraneous tissue was removed, the stomach washed with saline and blotted on gauze. A slit was carefully made in the stomach which was held over a funnel and the contents were collected in a centrifuge tube. The stomach was further cut along the outside edge and turned inside out. Two ml. H2 O were used to wash the stomach contents into the respective centrifuge tube. The combined stomach contents and wash were then centrifuged out for 10 minutes in the International Size 2 Centrifuge (setting at 30). The supernatant was collected, volume measured and recorded, 2 drops of a phenylphthalein indicator (1% in 95% ethanol) were added and the solution was titrated with 0.02 N NaOH (or with 0.04 N NaOH when large volumes of stomach contents were encountered) to pH 8.4 (because of usual coloring of the stomach contents, phenolphthalein was only used to permit visual indication that the end point was near) and the amount of acid present was calculated.
Compounds inducing inhibition of gastric acid secretion of 20% or more were considered active. In a representative operation, and merely by way of illustration, the results obtained with this assay with typical compounds of the present invention are given in Table II below.

[3] = system: bronchospasms elicited by 5-hydroxytryptamine; assay: Bronchodilator activity (Konzett assay), 5-hydroxytryptamine bronchospasm; format: in vivo, guinea pigs; details: Cavia porcellus; spasmogenic agent 5-hydroxytryptamine; three logarithmic cumulative intravenous doses
Procedure: (§1) Bronchodilator activity was determined in guinea pigs against bronchospasms elicited by intravenous injections of 5-hydroxytryptamine, histamine or acetylchlorine by the Konzett procedure. (See J. Lulling, P. Licvens, F. El Sayed and J. Prignot, Arzneinittel-Forschung, 18, 995 (1968).]
(§2) In the Table which follows bronchodilator activity for representative compounds of this invention against one or more of the three spasmogenic agents is expressed as an ED50 determined from the results obtained with three logarithmic cumulative intravenous doses.

[4] = system: bronchospasms elicited by histamine; assay: Bronchodilator activity (Konzett assay), histamine bronchospasm; format: in vivo, guinea pigs; details: Cavia porcellus, iv, spasmogenic agent histamine; three logarithmic cumulative intravenous doses
Procedure: as §1, §2

[5] = system: bronchospasms elicited by acetylcholine; assay: Bronchodilator activity (Konzett assay), acetylcholine bronchospasm; format: in vivo, guinea pigs; details: Cavia porcellus; spasmogenic agent acetylcholine; three logarithmic cumulative intravenous doses
Procedure: as §1, §2

[6] = 1 h, 60 min, read-out: % Inhibition of total acid output, after 60 minutes (A)
[7] = 2 h, 120 min, read-out: % Inhibition of total acid output, after 120 minutes (B)
[8] = total oral dose 12.5 mg/kg, score 0-4, controls 2.5-3.0

SMILES: COc1ccc2c(c1)c(CC(=O)O)c(C)n2C(=O)c1ccc(Cl)cc1 [indomethacin, reference compound]
Ulcer score, control animals treated with indomethacin but not test compound ([2]; 5 h): 2.5-3.5 | Gastrointestinal reactions (gastrointestinal effects): occurrence and, at times, severity of gastrointestinal reactions

SMILES: CCCCC[C@H](O)/C=C/[C@H]1[C@H](C)CC(=O)[C@@H]1C/C=C\CCCC(=O)O [l-11α-methyl-11-deoxyprostaglandin-E2, 11-deoxy-11α-methyl-prostaglandin E2]
Ulcer score, treated animals ([2]; total oral dose 6.25 mg/kg, score 0 (normal) to 4, controls 3.0): 2.5 | Ulcer score, treated animals [2, 8]: 2.0 | Ulcer score, treated animals ([2]; total oral dose 25 mg/kg, score 0-4, controls 2.7-3.9): 1.7 | inhibition in vivo at 50 mg/kg (gastric acid secretion): 63% | ED50 [3]: 0.0022 mg/kg | ED50 [4]: 0.05 mg/kg | ED50 [5]: 1.19 mg/kg

SMILES: CCCCC[C@H](O)/C=C/[C@H]1C(SC(C)=O)CC(=O)[C@@H]1C/C=C\CCCC(=O)O (stereo partly drawn) [l-11-acetylthio-11-deoxyprostaglandin-E2, 11-deoxy-11α/β-acetylthioprostaglandin E2]
inhibition in vivo at 10 mg/kg [1, 6]: 66% | inhibition in vivo at 10 mg/kg [1, 7]: 68% | Increase in weight of intestine (ligated intestine; 10 mg/kg): -0.02 g | Increase in weight of intestine (ligated intestine; 20 mg/kg): -0.1 g

SMILES: CCCCC[C@H](O)/C=C/[C@H]1C(C#N)CC(=O)[C@@H]1C/C=C\CCCC(=O)O (stereo partly drawn) [l-11α/β-cyano-11-deoxyprostaglandin-E2, 11α/β-cyano-11-deoxy-prostaglandin E2]
Ulcer score, treated animals [2, 8]: 1.2 | inhibition in vivo at 25 mg/kg (gastric acid secretion; 25 mg/kg): 31% | inhibition in vivo at 50 mg/kg (gastric acid secretion): 79% | ED50 [3]: 0.036 mg/kg | ED50 [4]: 0.0054 mg/kg | ED50 [5]: 0.091 mg/kg

SMILES: CCCCC[C@@H](/C=C/[C@H]1[C@H](CO)C[C@@H](O)[C@@H]1C/C=C\CCCC(=O)OC)OC(C)=O [l-11α-hydroxymethyl-15-O--acetyl-11-deoxyprostaglandin-F2 β methyl ester]
inhibition in vivo at 5 mg/kg [1, 6]: 47% | inhibition in vivo at 5 mg/kg [1, 7]: 33% | Increase in weight of intestine (ligated intestine; 10 mg/kg): +0.15 g.

Now from value to molecule, other results behind:

Increase in weight of intestine (ligated intestine; 10 mg/kg): +0.6 g.
SMILES: CCCCC[C@H](O)/C=C/[C@H]1[C@H](CO)C[C@@H](O)[C@@H]1C/C=C\CCCC(=O)O [l-11-dexoy-11α-hydroxymethylprostaglandin-F2 β]
inhibition in vivo at 5 mg/kg [1, 6]: 49% | inhibition in vivo at 5 mg/kg [1, 7]: 49%

Increase in weight of intestine (ligated intestine; 10 mg/kg): -0.2 g
SMILES: CCCCC[C@H](O)/C=C/[C@H]1[C@H](SCC)CC(=O)[C@@H]1C/C=C\CCCC(=O)O [l-11α-ethylthio-11-deoxyprostaglandin-E2, 11-deoxy-11α-ethylthioprostaglandin E2]

Increase in weight of intestine (ligated intestine; 10 mg/kg): -0.36 g
SMILES: C=C[C@@H]1C[C@H](O)[C@H](C/C=C\CCCC(=O)O)[C@H]1/C=C/[C@@H](O)CCCCC [l-11α-vinyl-11-deoxyprostaglandin-F2 α, 11-deoxy-11α-vinylprostaglandin F2α]
inhibition in vivo at 2.5 mg/kg [1, 6]: 15% | inhibition in vivo at 5 mg/kg [1, 6]: 53% | inhibition in vivo at 2.5 mg/kg [1, 7]: 37% | inhibition in vivo at 5 mg/kg [1, 7]: 67%
